Tests used:
Pyricularia orzae = test: whole plant or invertebrate; format: in vivo, Pyricularia orzae (rice plant, Chukyo Asahi); details: in Oryza sativa, 120 h, read-out: Protective value
Rhizoctonia solani = test: whole plant or invertebrate; format: in vivo, Rhizoctonia solani (rice plant, Chukyo Asahi); details: in Oryza sativa, 120 h, read-out: Preventive value
Sphaerotheca fuliginea = test: whole plant or invertebrate; format: in vivo, Sphaerotheca fuliginea (cucumber plant, Suyo); details: Podosphaera fuliginea, in Cucumis sativus, 240 h; read-out: Protective value
Tetranychus telarius (L) = test: Test 6: mortality of larvae and adults of Tetranychus telarius on kidney bean leaf; format: in vivo; details: foliar, 72 h, leaf dipped, wettable powder of Composition No. 5, three days after treatment, read-out: Percent mortality
Experimental: Young seedling of kidney bean treated to cut off leaves except one primordial leaf was transplanted in a cup and about 30 of larvae and adults of Tetranychus telarius (L) were inoculated on the primordial leaf. This was dipped for 10 seconds in each solution obtained by diluting each wettable powder of Composition No. 5 containing each active ingredient with water at the concentration of 800 ppm and was dried in air and was kept in a constant temperature chamber with lighting at 28° C. Three days after the treatment, mortality was measured and each percent mortality was calculated as follows. [formula]

Botrytis cinerea = test: Test 9: protective value on cucumber inoculated with Botrytis cinerea; format: in vivo, Botrytis cinerea (cucumber plant, Suyo); details: 72 h, 250 ppm, 10 ml sprayed, lesion length three days after inoculation
Experimental: In each unglazed pot having a diameter of 9 cm, cucumber plant (Suyo) was cultured. At one leaf stage, 10 ml. of each solution of each active ingredient having a concentration of 250 ppm was sprayed by a spray gun. After maintaining the pot in a green-house at 24° to 25° C. for one day, a disc (punched agar disc) obtained by culturing Botrytis cinerea on a potato-glucose-agar medium (PDA medium) was put on the leaf of cucumber to inoculate them. Three days after the inoculation, lengths of lesions were measured and each protective value was calculated as Test 2.
In accordance with the test, except the concentration of the active ingredient was decreased, the comparative tests of Compound No. 7 and Reference compound were carried out.

Plasmopara viticola = test: whole plant or invertebrate; format: in vivo, Plasmopara viticola (cucumber plant, Suyo); details: in Cucumis sativus, 144 h, read-out: Protective value
[1] = tested on: Collectotrichum lagenarium; test: Test 3: protective value on cucumber inoculated with Collectotrichum lagenarium; format: in vivo, Collectotrichum lagenarium (cucumber plant, Suyo); details: 500 ppm, 10 ml sprayed; lesions six days after inoculation
Experimental: In each unglazed pot having a diameter of 9 cm, cucumber plant (Suyo) was cultured. At one leaf stage, 10 ml. of each solution of each active ingredient having a concentration of 500 ppm was sprayed by a spray gun. After maintaining the pot in a green-house at 24° to 25° C. for one day, each spore suspension of Collectotrichum lagenarium was sprayed. Six days after the inoculation, number of lesions on the first leaf of seedling was observed. The protective value was calculated as Test 1.

Phytophthora infestans = format: cell-based; details: PDA medium; fungus A: Phytophthora infestans
Alternaria solani = test: Test 5: minimum growth inhibition concentration on PDA medium; format: cell-based; details: fungus C: Alternaria solani
Experimental: (§1) A mixture of 9 ml. of a potato-glucose-agar medium (PDA medium) and 1 ml. of each active ingredient was poured into each Petri-dish to be solidified. […] The following fungi were used.

Diaporthe citri = test: as above; format: cell-based; details: fungus B: Diaporthe citri
Experimental: as §1

Venturia inaequalie = test: as above; format: cell-based; details: fungus D: Venturia inaequalie
Experimental: as §1

Callosobruchus chinensis = test: Test 7: mortality of adults of Callosobruchus chinensis on film in Petri-dish; format: in vivo; details: 400 μg per Petri-dish of 9 cm, 25° C., 24 hours, read-out: Percent mortality
Experimental: Each active ingredient was dissolved in acetone to prepare each solution having the specific concentration. 1 Ml. of the solution (400 μg. of each active ingredient) was uniformly adhered on the inner bottom surface of Petri-dish having a diameter of 9 cm to form a film. In the dish, 15 of adults of Callosobruchus chinensis were charged and the dish was covered with a cap and kept in a constant temperature chamber at 25° C. for 24 hours. Each percent mortality was calculated as that of Test 6.

Structure (SMILES) | pest or weed control at 100 ppm (Pyricularia orzae) | pest or weed control at 100 ppm (Rhizoctonia solani) | pest or weed control at 500 ppm (Sphaerotheca fuliginea) | mortality at 800 ppm (Tetranychus telarius (L)) | pest or weed control at 250 ppm (Botrytis cinerea) | pest or weed control at 500 ppm (Plasmopara viticola) | Protective value [1] | minimum growth inhibition concentration (Phytophthora infestans) | minimum growth inhibition concentration (Alternaria solani) | minimum growth inhibition concentration (Diaporthe citri) | minimum growth inhibition concentration (Venturia inaequalie) | mortality at 400 µg/dish (Callosobruchus chinensis)
O=[N+]([O-])c1cc(C(F)(F)F)cc([N+](=O)[O-])c1Nc1nc(Cl)c(C(F)(F)F)cc1Cl [compound 34] | 100% | 100% | 100% | 100% | 100% | 83% |  |  |  |  |  | 
CC(=O)N(c1ncc(C(F)(F)F)cc1Cl)c1c([N+](=O)[O-])cc(C(F)(F)F)c(Cl)c1[N+](=O)[O-] [compound 88, N-acetyl-N-(3-chloro-5-trifluoromethyl-2-pyridyl)-2,6-dinitro-3-chloro-4-trifluoromethylaniline] |  | 100% |  |  |  | 100% |  |  |  |  |  | 
O=[N+]([O-])c1cc(C(F)(F)F)cc([N+](=O)[O-])c1Nc1ncc(Cl)cc1Cl [compound 3, N-(3,5-dichloro-2-pyridyl)-2,6-dinitro-4-trifluoromethylaniline] | 100% | 100% | 100% | 100% |  |  | 100% | 100 | 10 | 100 | < 1 | 100%
O=[N+]([O-])c1cc(C(F)(F)F)cc([N+](=O)[O-])c1Nc1nc(Cl)c(Br)cc1C(F)(F)F [compound 26] | 100% | 100% | 100% | 100% | 85% | 93% | 90% |  |  |  |  | 
O=[N+]([O-])c1cc(C(F)(F)F)c(Cl)c([N+](=O)[O-])c1Nc1nc(Cl)c(C(F)(F)F)cc1Br [compound 33] | 100% | 100% | 100% |  | 100% | 85% |  |  |  |  |  | 

From patent publication US4331670A (priority 1979, dated 1982)
